Results: patent US9493775B2, “Inhibition of the glycine cleavage system for treatment of cancer” (Whitehead Institute for Biomedical Research, priority 2012, dated 2016)

Assays:
T protein = T protein (Homo sapiens, UniProt P48728); details: cited from earlier work
P protein = details: cited from earlier work
[1] = patients with NKH; cited from earlier work
[2] = tested on: glycine cleavage activity in the liver; details: administration to rats; cited from earlier work
[3] = molecular target: T1, glycine cleavage system (GCS) (Homo sapiens, UniProt P23378); details: cited from earlier work
T1 sequence (P23378 36-1020): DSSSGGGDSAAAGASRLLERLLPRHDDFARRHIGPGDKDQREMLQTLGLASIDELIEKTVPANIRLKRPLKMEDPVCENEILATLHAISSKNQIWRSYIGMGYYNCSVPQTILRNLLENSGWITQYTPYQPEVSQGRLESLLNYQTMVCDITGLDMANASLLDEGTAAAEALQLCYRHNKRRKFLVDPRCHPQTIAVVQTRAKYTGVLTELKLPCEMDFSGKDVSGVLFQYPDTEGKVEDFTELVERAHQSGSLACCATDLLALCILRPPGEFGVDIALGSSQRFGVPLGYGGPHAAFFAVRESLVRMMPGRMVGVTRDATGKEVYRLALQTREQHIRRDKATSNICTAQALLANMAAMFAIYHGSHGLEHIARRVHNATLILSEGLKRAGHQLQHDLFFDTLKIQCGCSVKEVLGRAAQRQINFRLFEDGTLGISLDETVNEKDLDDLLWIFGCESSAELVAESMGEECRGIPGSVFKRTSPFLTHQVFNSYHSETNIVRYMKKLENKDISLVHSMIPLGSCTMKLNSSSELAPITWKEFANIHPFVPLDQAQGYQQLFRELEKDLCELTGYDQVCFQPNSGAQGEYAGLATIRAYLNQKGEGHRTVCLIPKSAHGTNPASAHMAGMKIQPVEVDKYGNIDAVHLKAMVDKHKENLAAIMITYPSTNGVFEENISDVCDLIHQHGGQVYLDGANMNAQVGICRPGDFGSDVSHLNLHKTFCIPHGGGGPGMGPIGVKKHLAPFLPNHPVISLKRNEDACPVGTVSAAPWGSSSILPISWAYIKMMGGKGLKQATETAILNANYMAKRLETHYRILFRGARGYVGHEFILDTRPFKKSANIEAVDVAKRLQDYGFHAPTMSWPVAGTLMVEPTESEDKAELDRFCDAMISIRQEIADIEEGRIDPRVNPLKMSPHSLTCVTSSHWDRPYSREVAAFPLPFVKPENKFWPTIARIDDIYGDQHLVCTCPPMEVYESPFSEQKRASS

[4] = tested on: GLDC-knockdown-sensitive cells; assay: Cysteamine treatment, cell viability by ATP assay; format: cell-based; details: 1 mM, 4 days
Procedure: FIGS. 3A-3C. GLDC shRNA sensitive lines, but not insensitive lines, are also sensitive to pharmacological inhibition of the GCS, and to shRNA knockdown of another GCS component (GCSH). (A) Various cell lines were treated with 1 mM cysteamine for 4 days. […] (C) Various cells lines were infected with GS1, GS2, GS3, or GS4 shRNAs for 6 days. Cell viability was measured and data from multiple experiments is shown ±S.D. The blue line indicates cell viability for each cell line when infected with control (GFP) shRNA, which was set as 100%. Thus, data for each cell line is shown as a % relative to viability when infected with shGFP. For (A) and (C), asterisk indicates a statistically significant decrease in cell viability following cysteamine treatment relative to untreated (p<0.05). Red font indicates GLDC shRNA-sensitive lines, and blue font indicates insensitive lines.
We assessed the effect of treatment with cysteamine, an inhibitor of the GCS (9) on a number of the tumor cell lines that had been examined in the experiments described in Example 3. Cells were treated with cysteamine (1 mM) for 4 days, and cell viability was then assessed using an ATP assay.

Sequence of T protein (P48728 29-403): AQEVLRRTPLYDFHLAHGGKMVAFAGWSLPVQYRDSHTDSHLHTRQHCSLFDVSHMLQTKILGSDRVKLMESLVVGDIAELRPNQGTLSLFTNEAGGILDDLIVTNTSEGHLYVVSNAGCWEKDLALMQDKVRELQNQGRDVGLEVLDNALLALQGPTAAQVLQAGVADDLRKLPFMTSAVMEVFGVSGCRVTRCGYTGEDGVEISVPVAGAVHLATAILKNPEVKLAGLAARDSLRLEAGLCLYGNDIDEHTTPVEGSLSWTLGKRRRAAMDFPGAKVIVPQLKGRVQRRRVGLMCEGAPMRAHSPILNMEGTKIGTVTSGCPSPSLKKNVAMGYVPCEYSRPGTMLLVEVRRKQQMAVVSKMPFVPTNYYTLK

CN1c2c(nc(N)[nH]c2=O)NCC1CNc1ccc(C(=O)N[C@@H](CCC(=O)O)C(=O)O)cc1 (stereo partly drawn) [5-methyltetrahydrofolate]
inhibition of T protein (T protein): inhibits T protein

CCCC(CCC)C(=O)O [valproic acid, 2-propylpentanoic acid]
P protein activity in vitro (P protein; in vitro): reduced | seizure frequency [1]: increase in seizure frequency | glycine cleavage activity in the liver [2]: inhibit glycine cleavage activity in the liver

C#CCN [propargylamine, 3-Amino-1-propyne]
inhibition of the GCS [3]: reported to inhibit the GCS

NCCS [cysteamine, 2-aminoethanethiol]
inhibition of the GCS [3]: known inhibitor of the GCS | cell viability (ATP assay) [4]: impaired viability

N#CCN [aminoacetonitrile]
inhibition of the GCS [3]: reported to inhibit the GCS

NOCC(=O)O [carboxymethoxylamine]
inhibition of P protein (P protein): reported to inhibit P protein
